# Tested on: UNG2 or N-terminally truncated versions
# Test: Uracil excision in presence of increasing amounts of purified free WH domain
# Assay type: biochemical, human
# Conditions: 0.4 nM enzyme, 0-50 μM purified WH domain, 100 nM DNA
# Description: 3′-FAM-labelled, PAGE-purified oligonucleotide substrates were from Sigma-Aldrich. Unless otherwise indicated, the substrate (25 nt) harboured uracil at position 10 in a polyC sequence to avoid secondary structures (U10-25*: […]-FAM). Double-stranded substrate was generated by annealing (heating followed by slow cooling) U10-25* to a non-labelled complementary oligo (A16-25: […]). All assays were performed at 22°C in 10 mM Tris–HCl pH 7.5, 50 mM NaCl, 1 mM DTT, 0.1 mM EDTA, 0.5 mg/ml BSA.
# Varying amounts of UNG were then added, and the mixtures incubated for 10 min in a water bath. To avoid unspecific interactions and binding of enzyme and DNA to the assay tube surface, low-DNA binding tubes and excess of BSA was used in all reactions. Reactions were quenched and AP sites cleaved in 10% piperidine at 90°C for 20 min. Samples were dried by vacuum centrifugation and suspended in formamide-containing loading buffer. Product and substrate were separated in 12% PAGE/7M urea–0.5× TBE gels, bands visualised in ChemiDoc™ Imager (Bio-Rad) and quantified by Image Lab software (Bio-Rad). Importantly, all assays in which two parameters were compared (e.g. RPA-coated versus naked substrate or WT versus mutated protein) were performed in parallel with the exact same DNA/protein dilutions.
substance,measurement,setting,value
"WH domain: purified RPA2-WH domain, RPA2 residues 172-270",effect on uracil excision from naked ss- and dsDNA substrates,,little effect
same,effect on uracil excision from RPA-bound ss- and dsDNA substrates,RPA-bound,markedly reduced
